From patent publication US20160264593A1 (priority 2013, published 2016)
pIC50: −log10 of the molar value.

How the values were obtained:
in vivo = conditions: male, rat, in vivo; for AUC(0-t): AUC0-t of 100; for AUC(0-inf): AUC0-∞ of 100; for Cmax: Cmax of 100; for Tmax: Tmax of 100; for MRT: MRT of 100; for half-life: T1/2 of 100
Protocol: A pharmacokinetic study of 151 was conducted in SD rats. The study consisted of two dose levels at 1.0 (iv) and 10 (oral) mg/kg. The blood samples were collected at predetermined times from rats and centrifuged to separate plasma. An LC/MS/MS method was developed to determine the test article in plasma samples. The pharmacokinetic parameters of 151 following iv and oral administration to SD rats were calculated. The absolute bioavailability was evaluated.
The final concentration of the test article was 0.2 mg/mL for iv administration and 1.0 mg/mL for oral administration. The test article solutions were administered using the most recent body weight for each animal.
Blood (approximately 0.3 mL) were collected via orbital plexus into tubes containing sodium heparin at 0.25, 0.5, 1, 2, 3, 5, 7, 9, and 24 hours after oral administration; at 5 min, 15 min, 0.5, 1, 2, 3, 5, 7, 9 and 24 hours after iv administration. Samples were centrifuged for 5 min, at 4° C. with the centrifuge set at 11,000 rpm to separate plasma. The obtained plasma samples were stored frozen at a temperature of about −70° C. until analysis.
Frozen plasma samples were thawed at room temperature and vortexed thoroughly. With a pipette, an aliquot (30 μL) of plasma was transferred into a 1.5-mL conical polypropylene tube. To each sample, 160 μL of acetonitrile were added. The samples were then vigorously vortex-mixed for 1 min. After centrifugation at 11000 rpm for 5 min, a 15 μL aliquot of the supernatant was injected into the LC-MS/MS system for analysis.
Calibration standards were prepared by spiking 30 μL of the 151 standard solutions into 30 μL of heparinized blank rat plasma. The nominal standard concentrations in the standard curve were 1.00, 3.00, 10.0, 30.0, 100, 300, 1000 and 3000 ng/mL.
The analysis was performed using an LC-MS/MS system consisting of the following components—HPLC system: Agilent 1200 series instrument consisting of G1312B vacuum degasser, G1322A binary pump, G1316B column oven and G1367D autosampler (Agilent, USA); MS/MS system: Agilent 6460 triple quadrupole mass spectrometer, equipped with an APCI Interface (Agilent, USA); Data system: MassHunter Software (Agilent, USA).
Chromatographic separation was carried out at room temperature—Analytical column: C8 column (4.6 mm×150 mm I.D., 5 μm, Agilent, USA); Mobile phase: Acetonitrile:10 mM ammonium acetate (75:25, v/v); Flow rate: 0.80 mL/min; Injection volume: 15 μL.
The mass spectrometer was operated in the positive mode. Ionization was performed applying the following parameters: gas temperature, 325° C.; vaporizer temperature, 350° C.; gas flow, 4 L/min; nebulizer, 20 psi; capillary voltage, 4500 V; corona current, 4 μA. 151 was detected using MRM of the transitions m/z 283→m/z 123 and m/z 283→m/z 251, simultaneously. The optimized collision energies of 25 eV and 10 eV were used for m/z 123 and m/z 251, respectively.
Quantification was achieved by the external standard method. Concentrations of the test article were calculated using a weighted least-squares linear regression (W=1/x^2).
The pharmacokinetic parameters were evaluated using WinNonlin version 5.3 (Pharsight Corp., Mountain View, Calif., USA), assuming a non-compartmental model for drug absorption and distribution. • AUC0-t is the area under the plasma concentration-time curve from time zero to last sampling time, calculated by the linear trapezoidal rule. • AUC0-∞ is the area under the plasma concentration-time curve from time zero extrapolating to infinity. • T1/2 is the elimination half-life associated with the terminal (log-linear) elimination phase, which is estimated via linear regression of time vs. log concentrations. • CL is the total body clearance. • Vss is the volume of distribution at steady-state.

human cancer cell lines = assay: IC50 for a broad spectrum of human cancer cell lines; assay type: cell-based
[1] = Sprague-Dawley (SD), iv, 1 mg/kg, Plasma Concentration of 100
[2] = Sprague-Dawley (SD), po, 10 mg/kg
[3] = Sprague-Dawley (SD), po, 10 mg/kg, Plasma Concentration of 100

CN1CCN(C(=O)C2C3CCC(O3)C2C(=O)O)CC1 (stereo not drawn) [Compound 100, 3-(4-methylpiperazine-1-carbonyl)-7-oxa-bicyclo[2,2,1]-heptane-2-carboxylic acid]
concentration at 0.083 h (in vivo; [1]): 646 ng/mL | concentration at 0.25 h (in vivo; [1]): 345 ng/mL | concentration at 0.5 h (in vivo; [1]): 308 ng/mL | concentration at 1 h (in vivo; [1]): 257 ng/mL | concentration at 2 h (in vivo; [1]): 125 ng/mL | concentration at 3 h (in vivo; [1]): 32.2 ng/mL | concentration at 5 h (in vivo; [1]): 10.2 ng/mL | AUC(0-t) (in vivo; [2]): 3370 ng·h/mL | AUC(0-inf) (in vivo; [2]): 3430 ng·h/mL | Cmax (in vivo; [2]): 1450 ng/mL | concentration at 0.5 h (in vivo; [3]): 1450 ng/mL | concentration at 1 h (in vivo; [3]): 1160 ng/mL | concentration at 2 h (in vivo; [3]): 781 ng/mL | concentration at 9 h (in vivo; [3]): 31.3 ng/mL | Tmax (in vivo; [2]): 40.2 min | AUC(0-t) (in vivo; Sprague-Dawley, iv, 1 mg/kg): 681 ng·h/mL | AUC(0-inf) (in vivo; Sprague-Dawley, iv, 1 mg/kg): 694 ng·h/mL | Cmax (in vivo; Sprague-Dawley, iv, 1 mg/kg): 646 ng/mL | MRT (in vivo; Sprague-Dawley, iv, 1 mg/kg): 69.6 min | half-life (in vivo; Sprague-Dawley, iv, 1 mg/kg): 52.8 min | Tmax (in vivo; Sprague-Dawley, iv, 1 mg/kg): 4.98 min | Cmax of 100 (in vivo; Sprague-Dawley, po, 10 mg/kg): 1447 ng/mL | Tmax of 100 (in vivo; Sprague-Dawley, po, 10 mg/kg): 30 min | AUC(0-t) (in vivo; Sprague-Dawley, po, 10 mg/kg): 2800 ng·h/mL | AUC(0-inf) (in vivo; Sprague-Dawley, po, 10 mg/kg): 2860 ng·h/mL | Cmax (in vivo; Sprague-Dawley, po, 10 mg/kg): 1430 ng/mL | MRT (in vivo; Sprague-Dawley, po, 10 mg/kg): 126 min | half-life (in vivo; Sprague-Dawley, po, 10 mg/kg): 82.8 min | Tmax (in vivo; Sprague-Dawley, po, 10 mg/kg): 30 min | pIC50 (human cancer cell lines): 5.52 to 6.00
